Test results from patent US11352316B2, “Opioid receptor modulators and products and methods related thereto” (priority 2018, dated 2022).

Key:
[1] = target: T1, mu opioid receptor (MOR) (Homo sapiens, UniProt P35372); assay: MOR GTPγS agonist assay (membranes, SPA beads); assay type: biochemical; conditions: membranes of CHO-K1 cells over-expressing MOR
T1 construct: host or cells: CHO-K1
Source text: Membranes obtained from the stable cell lines over-expressing MOR were subjected to GTPγS assay using SPA beads (Perkin Elmer, Cat #RPNQ0001).

[2] = system: Male Sprague-Dawley rats; assay: Hot plate assay; assay type: in vivo; conditions: rat, SC
Procedure: Male Sprague-Dawley rats weighing 275-300 grams were used in the study, n=8-10 per group. Animals are injected SC with 0.9% normal saline solution. At 15, 45, and 80 min after the injection, animals were placed onto a hotplate set to 52 degrees centigrade, and baseline latency is recorded (baseline latency=average time to 2nd withdrawal response consisting of either a lick of a rear paw, shaking a rear paw, backwards walking or jumping). A day later animals were injected SC with test compounds either in vehicle solution, or with a mix of compounds in solution. Next the test latency was recorded (test latency=time to withdrawal on the hotplate measured at 15, 45, 80, 120, 180 and 240 min using the procedure described). Times were then converted to % maximum possible effect (% MPE)=(test_latecy−baseline_latency)/(30 sec−baseline_latency); where 30 sec is the cutoff where the animal is removed if no response ifs observed as it is the time point at which injury is expected to occur.

T1 sequence (P35372 whole entry): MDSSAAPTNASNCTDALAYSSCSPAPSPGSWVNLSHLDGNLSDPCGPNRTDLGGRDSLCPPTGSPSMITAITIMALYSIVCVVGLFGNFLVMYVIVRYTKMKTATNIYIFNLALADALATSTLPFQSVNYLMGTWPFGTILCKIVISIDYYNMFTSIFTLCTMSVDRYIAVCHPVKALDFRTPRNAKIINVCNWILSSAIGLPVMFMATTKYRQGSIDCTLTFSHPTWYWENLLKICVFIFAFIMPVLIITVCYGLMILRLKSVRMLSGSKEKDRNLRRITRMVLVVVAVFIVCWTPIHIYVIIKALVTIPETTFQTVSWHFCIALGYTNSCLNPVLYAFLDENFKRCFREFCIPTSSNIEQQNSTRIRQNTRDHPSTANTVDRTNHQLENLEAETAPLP

Q: For `CNC(=O)c1ccc(C[C@@H](CNC(=O)c2ccc(Cl)cc2Cl)N(C)C)cc1F` [Compound C-37, (S)-2,4-dichloro-N-(2-(dimethylamino)-3-(3-fluoro-4-(methylcarbamoyl)phenyl)propyl) benzamide], which EC50 [1] is on record?
A: The EC50 was less than 100 nM.

Q: For `CN(C)[C@H](CNC(=O)[C@@H]1C[C@]1(C)c1ccccc1)Cc1ccc(O)cc1Cl` [Compound B-15, (1R,2S)—N—((S)-3-(2-chloro-4-hydroxyphenyl)-2-(dimethylamino)propyl)-2-methyl-2-phenylcyclopropane-1-carboxamide], which “effect on the analgesic activity of agonist Compound B-56 in the hotplate test” value ([2]; co-dosed with Compound B-56, FIG. 1) is on record?
A: The value was “blocks in vivo the analgesic activity of the agonist Compound B-56”.

Q: And the “effect on its own in the hotplate test” value ([2]; dosed alone, FIG. 1)?
A: Its value is “no effect on its own”.

Q: Which EC50 [1] does the source give for `CNC(=O)c1cc(C)c(C[C@@H](CNC(=O)c2ccccc2OC)N(C)C)c(C)c1` [Compound C-68, (S)-4-(2-(dimethylamino)-3-(2-methoxybenzamido)propyl)-N,3,5-trimethylbenzamide] here?
A: The EC50 was less than 100 nM.

Q: For `Cc1cc(O)ccc1C[C@@H](CNC(=O)[C@@H]1C[C@@]1(C)c1ccccc1)N(C)C` [Compound B-56, (1R,2R)—N—((S)-2-(dimethylamino)-3-(4-hydroxy-2-methylphenyl)propyl)-2-methyl-2-phenylcyclopropane-1-carboxamide], which “analgesic activity in the hotplate test (time to withdrawal response, % MPE)” value ([2]; hotplate 52 degrees centigrade, FIG. 1) is on record?
A: Its value is “analgesic”.
